Assays:
Format in all cases: cell-based, Human
Caco-2 cells = test: Cytotoxicity assay (MTS) in confluent non-differentiated Caco-2 cells; conditions: isolated compounds; Caco-2, 24 hours, mean ± SD
Experimental: (§1) Human Caco-2 and HT29 cell lines were obtained from Deutsche Sammlung von Mikroorganismen und Zellkulturen (DSMZ, Germany) and American Type Culture Collection (ATCC, USA), respectively. These cell lines were cultured in RPMI 1640 medium supplemented with 10% of heat-inactivated fetal bovine serum (FBS) and 1% […] (PS). Cells were maintained at 37°C with 5% CO2 in a humidified incubator and routinely grown as a monolayer in 75 cm^2 culture flasks. The cell culture medium and supplements were purchased from Invitrogen (Gibco, Invitrogen Corporation, UK). Cytotoxicity assay was performed using confluent and non-differentiated Caco-2 cells, a model considered to assess the effect of chemical/food compounds and nano/microparticles on the intestinal function since it shares characteristics of the enterocytes. The assay was performed as previously described by Rodrigues et al.[71]. Briefly, Caco-2 cells were seeded into 96-well plates at a density of 2 × 10^4 cells/well and allowed to grow for 7 days, with medium renewal every 48 hours. At day 7, cells were incubated with the samples diluted in culture medium. Cells incubated only with culture medium were considered as control. After 24 hours, cells were washed once with PBS (Sigma-Aldrich, USA) and cell viability was assessed using CellTiter 96® AQueous One Solution Cell Proliferation Assay (Promega, USA) containing MTS reagent, according to manufacturer's instructions. The absorbance was measured at 490 nm using a Spark® 10 M Multimode Microplate Reader (Tecan Trading AG, Switzerland) and cell viability was expressed in terms of percentage of living cells relatively to the control. At least three independent experiments were performed in triplicate. All data were expressed as mean ± standard errors (SD). GraphPad Prism 6 software was used to calculate EC50 values (the concentration of sample necessary to decrease 50% of cell population) and to analyse significant differences between data set through One-Way Analysis of Variance (ANOVA) following Dunnett's multiple comparison tests.

HT29 cells [1] = test: Antiproliferative assay in HT29 cell monolayer (MTS); conditions: isolated compounds, HT29, 24 hours, mean ± SD
Experimental: Human Caco-2 and HT29 cell lines were obtained from Deutsche Sammlung von Mikroorganismen und Zellkulturen (DSMZ, Germany) and American Type Culture Collection (ATCC, USA), respectively. These cell lines were cultured in RPMI 1640 medium supplemented with 10% of heat-inactivated fetal bovine serum (FBS) and 1% […] (PS). Cells were maintained at 37°C with 5% CO2 in a humidified incubator and routinely grown as a monolayer in 75 cm^2 culture flasks. The cell culture medium and supplements were purchased from Invitrogen (Gibco, Invitrogen Corporation, UK). Antiproliferative effect of […] and standard compounds was evaluated in HT29 cells, as described elsewhere. Briefly, cells were seeded at a density of 1 × 10^4 cells/well in 96-well culture plates. After 24 hours cells were incubated with different concentrations of the samples diluted in culture medium. Cells incubated only with culture medium were considered as control. Cell proliferation was measured after 24 hours using MTS, as mentioned above. Results were expressed in terms of percentage of living cells relatively to the control. At least three independent experiments were performed in triplicate. All data were expressed as mean ± standard errors (SD). GraphPad Prism 6 software was used to calculate EC50 values (the concentration of sample necessary to decrease 50% of cell population) and to analyse significant differences between data set through One-Way Analysis of Variance (ANOVA) following Dunnett's multiple comparison tests.

[2] = Cytotoxicity assay (MTS) in confluent non-differentiated Caco-2 cells; conditions: human, confluent, non-differentiated Caco-2 cells; isolated compounds; Caco-2, 24 hours, mean ± SD
Experimental: as §1

HT29 cells [3] = test: Cell cycle assessment by flow cytometry; conditions: HT29, 24 hours, non-cytotoxic concentrations
Experimental: HT29 cell line was seeded at a density of 1 × 10^6 cells in a 25 cm^2 culture flask for 24 hours. Then, cells were incubated in different concentrations of the samples diluted in culture medium and culture medium alone (as control) for 24 hours. For flow cytometry analysis of DNA content, bare nuclei were prepared as described elsewhere. Briefly, cells were detached from the culture flasks with trypsin-EDTA 0.5% and washed one time with cold PBS. Finally, 1 × 10^6 cells were re-suspended in 1 mL of staining solution containing […] of Propidium Iodide (Sigma-Aldrich, USA), 1.5% (v/v) of Triton X-100 (Sigma-Aldrich, USA), 0.7 U/mL of DNase/protease-free Ribonuclease A (Thermo Scientific, USA) and 0.01 M of NaCl, followed by incubation at room temperature in the dark for 2 hours. Cell cycle was assessed by flow cytometry, using a CyFlow space (Partec GmbH) instrument, registering 30.000 events/sample as described previously.

HT29 cells [4] = test: Caspase-3 activity induction (apoptosis); conditions: HT29, 24 hours, 2 mM
Experimental: Apoptosis was evaluated by caspase-3 activity using NucView488TM and MitoView633TM Apoptosis Assay Kit (Biotium, USA) that allows the staining of living cells with a far-red fluorescent dye MitoView633TM, while the intracellular caspase-3/7 activity and cells nuclei morphological changes were stained with bright green fluorescent dye NucView488TM. HT29 cells were seeded at a density of 40.000 cell/cm^2 at 24-well plate for 24 hours. Then, cells were incubated another 24 hours with different concentrations of the samples diluted in culture medium and culture medium alone (as control). Staining was performed with 200 μL/well of culture medium containing 1 μL of NucView488TM and 1 μL of MitoView633TM for 2 hours.

| Compound | EC50 (Caco-2 cells) [mM] | EC50 (HT29 cells [1]) [mM] | EC50 at 24 h [2] [mM] | Effect on cell cycle (HT29 cells [3]) | EC50 (HT29 cells [1]; Homo sapiens, HT-29) [mM] | Induction of apoptosis (caspase-3 activity) (HT29 cells [4]) |
| --- | --- | --- | --- | --- | --- | --- |
| CCCCCCCCCC(=O)O [CA, Capric acid] | 1.33 ± 0.223 | 0.341 ± 0.081 | – | – | – | – |
| CC(C)Cc1ccc(C(C)C(=O)O)cc1 (centres unmarked) [IBU, Ibuprofen] | – | – | 2.89 ± 0.059 | promoted cell cycle arrest in G1-phase | 2.35 ± 0.088 | – |
| CC1CCC(C(C)C)C(O)C1 (centres unmarked) [Menthol, menthol] | – | – | 8.08 ± 0.81 | – | 4.73 | – |
| S-Limonene | 2.64 ± 0.108 | 0.661 ± 0.025 | – | promoted cell cycle arrest in G1-phase | – | capable of inducing apoptosis via caspase-3 activity |
